In the experiment the target is T1, human PD-1 / PD-L1-Ig binding on Jurkat cell line over-expressing human PD-1 (Jurkat-PD-1) (Homo sapiens, UniProt Q15116).
T1 construct: expressed in transfected cells; host or cells: Jurkat
Briefly: Jurkat-PD-1 Cell Binding High-Content Screening Assay (CBA). Type of experiment: cell-based. The conditions noted are these: Jurkat-PD-1 cells, PE-labeled PD-L1-Ig 20 nM final; read-out: Jurkat HPD1_PDL1 IC50. In short, it runs like this: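 Jurkat cells over-expressing human PD-1, in DMEM/10% FCS, pre-incubated with compound 2 h at 37° C. PE-labeled human PD-L1-Ig (20 nM final) added for 1 h; cells fixed in paraformaldehyde with Hoechst 33342 nuclear stain, washed, and bound fluorescence quantified by high-content imaging.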

For orientation: IC50 means the point on the concentration scale where inhibition reaches its midpoint.

Where a SMILES comes first, the peptide text is derived from it. Bridges are numbered along the chain shown (N, C = ends). [ ]: non-standard residue; d: D form. The star is where a group is joined. ξ: configuration not given here. Bip(3'-COOH) = N[C@@H](Cc1ccc(-c2cccc(C(=O)O)c2)cc1)C(=O)O; Ala(morpholin-4-yl) = N[C@@H](CN1CCOCC1)C(=O)O; Phe(4-COOH) = N[C@@H](Cc1ccc(C(=O)O)cc1)C(=O)O; Bip = N[C@@H](Cc1ccc(-c2ccccc2)cc1)C(=O)O; Phe(4-NH2) = Nc1ccc(C[C@H](N)C(=O)O)cc1; Phe(3-Me) = Cc1cccc(C[C@H](N)C(=O)O)c1; Val(3-OH) = CC(C)(O)[C@H](N)C(=O)O; aIle = CC[C@@H](C)[C@H](N)C(=O)O; 4Pal = N[C@@H](Cc1ccncc1)C(=O)O; Cha = N[C@@H](CC1CCCCC1)C(=O)O; Cit = NC(=O)NCCC[C@H](N)C(=O)O; Thr(3ξ) = CC(O)[C@H](N)C(=O)O; dNle = CCCC[C@@H](N)C(=O)O; Carboxymethyl = O=C(O)C*; Orn = NCCC[C@H](N)C(=O)O; Pra = C#CC[C@H](N)C(=O)O; Dab = NCC[C@H](N)C(=O)O; Dap = NC[C@H](N)C(=O)O

T1 sequence (Q15116 25-288): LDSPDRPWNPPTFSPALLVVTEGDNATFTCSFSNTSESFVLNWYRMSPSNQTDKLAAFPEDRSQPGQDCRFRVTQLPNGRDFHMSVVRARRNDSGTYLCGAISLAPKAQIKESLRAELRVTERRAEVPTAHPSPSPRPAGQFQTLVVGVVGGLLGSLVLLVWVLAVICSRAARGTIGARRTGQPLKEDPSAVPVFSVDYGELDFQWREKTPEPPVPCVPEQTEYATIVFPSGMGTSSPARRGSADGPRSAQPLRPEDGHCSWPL

With `CC(C)C[C@H]1NC(=O)[C@H](CCCN)NC(=O)[C@H](C(C)C)NC(=O)[C@H](Cc2ccc(-c3ccccc3)cc2)NC(=O)[C@H](C(C)C)NC(=O)[C@H](Cc2c[nH]c3ccccc23)NC(=O)[C@H](CC(=O)O)NC(=O)[C@H](Cc2ccc(O)cc2)NC(=O)[C@H](CCC(N)=O)NC(=O)CSC[C@@H](C(=O)N[C@@H](C)C(N)=O)NC(=O)[C@H](C(C)O)NC(=O)[C@H](C(C)C)NC(=O)[C@H](CC2CCCCC2)NC(=O)[C@H](CCN)NC1=O` (stereo partly drawn) [Compound 2525] ({CH2CO}-QYDWV[Bip]V[Orn][dL][Dab][Cha]V[Thr(3ξ)]CA-NH2; thioether N-14), the IC50 is 17.3 nM.
Next, `CC(C)C[C@H]1NC(=O)[C@H](CCCN)NC(=O)[C@H](CCCNC(N)=O)NC(=O)[C@H](Cc2ccc(-c3ccccc3)cc2)NC(=O)[C@H](C(C)C)NC(=O)[C@H](Cc2c[nH]c3ccccc23)NC(=O)[C@H](CC(=O)O)NC(=O)[C@H](Cc2ccc(O)cc2)NC(=O)[C@H](CN)NC(=O)CSC[C@@H](C(=O)N[C@@H](C)C(N)=O)NC(=O)[C@H]([C@@H](C)O)NC(=O)[C@H](C(C)C)NC(=O)[C@H](CC2CCCCC2)NC(=O)[C@H](CCCNC(=N)N)NC1=O` [Compound 1153] ({CH2CO}-[Dap]YDWV[Bip][Cit][Orn][dL]R[Cha]VTCA-NH2; thioether N-14): 8.9 nM.
As to `CCCC[C@H]1NC(=O)[C@H](CCCN)NC(=O)[C@H](CCC(=O)O)NC(=O)[C@H](Cc2ccc(-c3ccccc3)cc2)NC(=O)[C@H](C(C)C)NC(=O)[C@H](Cc2c[nH]c3ccccc23)NC(=O)[C@H](CC(=O)O)NC(=O)[C@H](Cc2ccc(O)cc2)NC(=O)[C@H](CC(N)=O)NC(=O)CSC[C@@H](C(=O)N[C@@H](C)C(N)=O)NC(=O)[C@H]([C@@H](C)O)NC(=O)[C@H](C(C)C)NC(=O)[C@H](CC2CCCCC2)NC(=O)[C@H](CCN)NC1=O` [Compound 1453] ({CH2CO}-NYDWV[Bip]E[Orn][dNle][Dab][Cha]VTCA-NH2; thioether N-14), the IC50 came to 9.7 nM.
`CC(C)C[C@H]1NC(=O)[C@H](CCCN)NC(=O)[C@H](CCCNC(N)=O)NC(=O)[C@H](Cc2ccc(-c3ccccc3)cc2)NC(=O)[C@H](C(C)C)NC(=O)[C@H](Cc2c[nH]c3ccccc23)NC(=O)[C@H](CC(=O)O)NC(=O)[C@H](Cc2ccc(OCC(=O)O)cc2)NC(=O)[C@H](CN)NC(=O)CSC[C@@H](C(=O)N[C@@H](C)C(N)=O)NC(=O)[C@H](C(C)C)NC(=O)[C@H](C(C)C)NC(=O)[C@H](CC2CCCCC2)NC(=O)[C@H](CCN)NC1=O` [Compound 1319] ({CH2CO}-[Dap]Y(Carboxymethyl)DWV[Bip][Cit][Orn][dL][Dab][Cha]VVCA-NH2; thioether N-14): the IC50 was found to be 49.7 nM.
As to `CC[C@@H](C)[C@@H]1NC(=O)[C@H](Cc2ccc(-c3ccccc3)cc2)NC(=O)[C@H](C(C)C)NC(=O)[C@H](Cc2cccc(C)c2)NC(=O)[C@H](CC(=O)O)NC(=O)[C@H](Cc2ccc(O)cc2)NC(=O)[C@H](CC(N)=O)NC(=O)CSC[C@@H](C(N)=O)NC(=O)[C@H]([C@@H](C)O)NC(=O)[C@H](C(C)C)NC(=O)[C@H](CC(C)C)NC(=O)[C@H](CCN)NC(=O)[C@@H](CC(C)C)NC(=O)[C@H](CCCN)NC1=O` [Compound 1657] ({CH2CO}-NYD[Phe(3-Me)]V[Bip][aIle][Orn][dL][Dab]LVTC-NH2; thioether N-14), the half-maximal inhibitory concentration (IC50) was 59.9 nM.
Turning to `CC(C)C[C@H]1NC(=O)[C@H](CCCN)NC(=O)[C@H](CCC(=O)O)NC(=O)[C@H](Cc2ccc(-c3ccccc3)cc2)NC(=O)[C@H](C(C)C)NC(=O)[C@H](Cc2c[nH]c3ccccc23)NC(=O)[C@H](CC(=O)O)NC(=O)[C@H](Cc2ccc(-c3cccc(C(=O)O)c3)cc2)NC(=O)[C@H](CC(N)=O)NC(=O)CSC[C@@H](C(=O)N[C@@H](C)C(N)=O)NC(=O)[C@H]([C@@H](C)O)NC(=O)[C@H](C(C)C)NC(=O)[C@H](CC2CCCCC2)NC(=O)[C@H](CCN)NC1=O` [Compound 2165] ({CH2CO}-N[Bip(3'-COOH)]DWV[Bip]E[Orn][dL][Dab][Cha]VTCA-NH2; thioether N-14), the IC50 is 24.1 nM.
For `Cc1cccc(C[C@@H]2NC(=O)[C@H](CC(N)=O)NC(=O)[C@H](Cc3ccc(OCC(=O)O)cc3)NC(=O)[C@H](CN3CCOCC3)NC(=O)CSC[C@@H](C(=O)N[C@@H](CCN)C(N)=O)NC(=O)[C@H](CCCN)NC(=O)[C@H](C(C)C)NC(=O)[C@H](CC3CCCCC3)NC(=O)[C@H](CCN)NC(=O)[C@@H](CC(C)C)NC(=O)[C@H](CCCN)NC(=O)[C@H](CCCN)NC(=O)[C@H](Cc3ccc(-c4ccccc4)cc3)NC(=O)[C@H](Cc3ccc(C(=O)O)cc3)NC2=O)c1` [Example 2725] ({CH2CO}-[Ala(morpholin-4-yl)]Y(Carboxymethyl)N[Phe(3-Me)][Phe(4-COOH)][Bip][Orn][Orn][dL][Dab][Cha]V[Orn]C[Dab]-NH2; thioether N-14) the value was 48.1 nM; for `CC(C)C[C@@H]1NC(=O)[C@H](CCCCN)NC(=O)[C@@H](CC(C)C)NC(=O)[C@H](CCN)NC(=O)[C@H](Cc2cnc[nH]2)NC(=O)[C@H](Cc2ccc(-c3ccccc3)cc2)NC(=O)[C@H](C(C)C)NC(=O)[C@H](Cc2c[nH]c3ccccc23)NC(=O)[C@H](CC(=O)O)NC(=O)[C@H](Cc2ccc(O)cc2)NC(=O)[C@H](CC(N)=O)NC(=O)CSC[C@@H](C(=O)NCC(N)=O)NC(=O)[C@H](CO)NC(=O)[C@H](C(C)C)NC1=O` [Compound 1139] ({CH2CO}-NYDWV[Bip]H[Dab][dL]KLVSCG-NH2; thioether N-14), 44.4 nM.
For `CC(C)C[C@H]1NC(=O)[C@H](CCCN)NC(=O)[C@H](CCC(=O)O)NC(=O)[C@H](Cc2ccc(-c3ccccc3)cc2)NC(=O)[C@H](C(C)C)NC(=O)[C@H](Cc2c[nH]c3ccccc23)NC(=O)[C@H](CC(=O)O)NC(=O)[C@H](Cc2ccc(N)cc2)NC(=O)[C@H](Cc2ccccc2)NC(=O)CSC[C@@H](C(=O)N[C@@H](C)C(N)=O)NC(=O)[C@H]([C@@H](C)O)NC(=O)[C@H](C(C)C)NC(=O)[C@H](CC2CCCCC2)NC(=O)[C@H](CCN)NC1=O` [Compound 2181] ({CH2CO}-F[Phe(4-NH2)]DWV[Bip]E[Orn][dL][Dab][Cha]VTCA-NH2; thioether N-14) the value was 26.4 nM.
Next, `CC[C@H](C)[C@@H]1NC(=O)[C@H](Cc2ccc(-c3ccccc3)cc2)NC(=O)[C@H](C(C)C)NC(=O)[C@H](Cc2c[nH]c3ccccc23)NC(=O)[C@H](CC(=O)O)NC(=O)[C@H](Cc2ccc(O)cc2)NC(=O)[C@H](CC(N)=O)NC(=O)CSC[C@@H](C(=O)N[C@@H](C)C(N)=O)NC(=O)[C@H](CO)NC(=O)[C@H](C(C)C)NC(=O)[C@H](CC(C)C)NC(=O)[C@H](CCN)NC(=O)[C@@H](CC(C)C)NC(=O)[C@H](CCCCN)NC1=O` [Compound 1119] ({CH2CO}-NYDWV[Bip]IK[dL][Dab]LVSCA-NH2; thioether N-14): 13.3 nM.
With `Cc1cccc(C[C@@H]2NC(=O)[C@H](CC(=O)O)NC(=O)[C@H](Cc3ccncc3)NC(=O)[C@H](CN)NC(=O)CSC[C@@H](C(=O)N[C@@H](C)C(N)=O)NC(=O)[C@H]([C@@H](C)O)NC(=O)[C@H](C(C)C)NC(=O)[C@H](CC(C)C)NC(=O)[C@H](CCN)NC(=O)[C@@H](CC(C)C)NC(=O)[C@H](CCCN)NC(=O)[C@H](C(C)C)NC(=O)[C@H](Cc3ccc(-c4ccccc4)cc3)NC(=O)[C@H](C(C)C)NC2=O)c1` [Compound 1223] ({CH2CO}-[Dap][4Pal]D[Phe(3-Me)]V[Bip]V[Orn][dL][Dab]LVTCA-NH2; thioether N-14), the IC50 turned out to be 6.1 nM.
Next, `C#CC[C@H](NC(=O)[C@H](CCN)NC(=O)[C@@H]1CSCC(=O)N[C@@H](CCCN)C(=O)N[C@@H](Cc2ccc(C(=O)O)cc2)C(=O)N[C@@H](CC(=O)O)C(=O)N[C@@H](Cc2cccc(C)c2)C(=O)N[C@@H](Cc2ccc(C(=O)O)cc2)C(=O)N[C@@H](Cc2ccc(-c3ccccc3)cc2)C(=O)N[C@@H](Cc2ccc(C(=O)O)cc2)C(=O)N[C@@H](CCCN)C(=O)N[C@H](CC(C)C)C(=O)N[C@@H](CCN)C(=O)N[C@@H](CC2CCCCC2)C(=O)N[C@@H](C(C)(C)O)C(=O)N[C@@H](CO)C(=O)N1)C(N)=O` [Compound 1846] ({CH2CO}-[Orn][Phe(4-COOH)]D[Phe(3-Me)][Phe(4-COOH)][Bip][Phe(4-COOH)][Orn][dL][Dab][Cha][Val(3-OH)]SC[Dab][Pra]-NH2; thioether N-14): 8.3 nM.
For `CC(C)C[C@@H]1NC(=O)[C@H](CCN)NC(=O)[C@@H](CC(C)C)NC(=O)[C@H](CCN)NC(=O)[C@H](C(C)C)NC(=O)[C@H](Cc2ccc(-c3ccccc3)cc2)NC(=O)[C@H](C(C)C)NC(=O)[C@H](Cc2c[nH]c3ccccc23)NC(=O)[C@H](CC(N)=O)NC(=O)[C@H](Cc2ccc(O)cc2)NC(=O)[C@H](CC(N)=O)NC(=O)CSC[C@@H](C(=O)NCC(N)=O)NC(=O)[C@H]([C@@H](C)O)NC(=O)[C@H](C(C)C)NC1=O` [Compound 1086] ({CH2CO}-NYNWV[Bip]V[Dab][dL][Dab]LVTCG-NH2; thioether N-14) the value was 20.5 nM.
For `Cc1cccc(C[C@@H]2NC(=O)[C@H](CC(=O)O)NC(=O)[C@H](Cc3ccc(O)cc3)NC(=O)[C@H](CC(N)=O)NC(=O)CSC[C@@H](C(=O)N[C@@H](C)C(N)=O)NC(=O)[C@H]([C@@H](C)O)NC(=O)[C@H](C(C)C)NC(=O)[C@H](CC3CCCCC3)NC(=O)[C@H](CCN)NC(=O)[C@@H](Cc3ccccc3)NC(=O)[C@H](CCCN)NC(=O)[C@H](CCC(=O)O)NC(=O)[C@H](Cc3ccc(-c4ccccc4)cc3)NC(=O)[C@H](C(C)C)NC2=O)c1` [Compound 1431] ({CH2CO}-NYD[Phe(3-Me)]V[Bip]E[Orn][dF][Dab][Cha]VTCA-NH2; thioether N-14) the value was 11.6 nM; for `CC(C)C[C@@H]1NC(=O)[C@H](CCN)NC(=O)[C@@H](CC(C)C)NC(=O)[C@H](CCCN)NC(=O)[C@H](C(C)C)NC(=O)[C@H](Cc2ccc(-c3ccccc3)cc2)NC(=O)[C@H](C(C)C)NC(=O)[C@H](Cc2c[nH]c3ccccc23)NC(=O)[C@H](CC(N)=O)NC(=O)[C@H](Cc2ccc(O)cc2)NC(=O)[C@H](CC(N)=O)NC(=O)CSC[C@@H](C(=O)NCC(N)=O)NC(=O)[C@H](CO)NC(=O)[C@H](C(C)C)NC1=O` [Compound 1081] ({CH2CO}-NYNWV[Bip]V[Orn][dL][Dab]LVSCG-NH2; thioether N-14), 28.6 nM.
